Reference: patent US8552006B2, “Modulators of cystic fibrosis transmembrane conductance regulator” (Vertex Pharmaceuticals Incorporated, priority 2007, dated 2013)

Biological target: T1, ΔF508-CFTR (Homo sapiens, UniProt P13569, DEL508-508)
T1 construct: expressed in transfected cells
Experiment: Membrane potential optical assay for potentiators of ΔF508-CFTR (double-addition HTS, FLIPR III)
Assay type: cell-based
Conditions: for Emax: 100% efficacy is the maximum response obtained with 4-methyl-2-(5-phenyl-1H-pyrazol-3-yl)phenol; for EC50: temperature-corrected ΔF508 CFTR NIH 3T3 cells, potentiation with forskolin activation
Excerpt: Membrane Potential Optical Methods for Assaying ΔF508-CFTR Modulation Properties of Compounds
The assay utilizes fluorescent voltage sensing dyes to measure changes in membrane potential using a fluorescent plate reader (e.g., FLIPR III, Molecular Devices, Inc.) as a readout for increase in functional ΔF508-CFTR in NIH 3T3 cells. The driving force for the response is the creation of a chloride ion gradient in conjunction with channel activation by a single liquid addition step after the cells have previously been treated with compounds and subsequently loaded with a voltage sensing dye.
To identify potentiators of ΔF508-CFTR, a double-addition HTS assay format was developed. This HTS assay utilizes fluorescent voltage sensing dyes to measure changes in membrane potential on the FLIPR III as a measurement for increase in gating (conductance) of ΔF508 CFTR in temperature-corrected ΔF508 CFTR NIH 3T3 cells. The driving force for the response is a Cl^− ion gradient in conjunction with channel activation with forskolin in a single liquid addition step using a fluoresecent plate reader such as FLIPR III after the cells have previously been treated with potentiator compounds (or DMSO vehicle control) and subsequently loaded with a redistribution dye.
Bath Solution #1: (in mM) NaCl 160, KCl 4.5, CaCl2 2, MgCl2 1, HEPES 10, pH 7.4 with NaOH.
Chloride-Free Bath Solution: Chloride Salts in Bath Solution #1 are Substituted with Gluconate Salts.
NIH3T3 mouse fibroblasts stably expressing ΔF508-CFTR are used for optical measurements of membrane potential. The cells are maintained at 37° C. in 5% CO2 and 90% humidity in Dulbecco's modified Eagle's medium supplemented with 2 mM glutamine, 10% fetal bovine serum, 1×NEAA, β-ME, 1× pen/strep, and 25 mM HEPES in 175 cm^2 culture flasks. For all optical assays, the cells were seeded at ˜20,000/well in 384-well matrigel-coated plates and cultured for 2 hrs at 37° C. before culturing at 27° C. for 24 hrs. for the potentiator assay. For the correction assays, the cells are cultured at 27° C. or 37° C. with and without compounds for 16-24 hours. Electrophysiological Assays for assaying ΔF508-CFTR modulation properties of compounds.

T1 sequence (P13569 with tags, fused parts or gaps DEL508-508): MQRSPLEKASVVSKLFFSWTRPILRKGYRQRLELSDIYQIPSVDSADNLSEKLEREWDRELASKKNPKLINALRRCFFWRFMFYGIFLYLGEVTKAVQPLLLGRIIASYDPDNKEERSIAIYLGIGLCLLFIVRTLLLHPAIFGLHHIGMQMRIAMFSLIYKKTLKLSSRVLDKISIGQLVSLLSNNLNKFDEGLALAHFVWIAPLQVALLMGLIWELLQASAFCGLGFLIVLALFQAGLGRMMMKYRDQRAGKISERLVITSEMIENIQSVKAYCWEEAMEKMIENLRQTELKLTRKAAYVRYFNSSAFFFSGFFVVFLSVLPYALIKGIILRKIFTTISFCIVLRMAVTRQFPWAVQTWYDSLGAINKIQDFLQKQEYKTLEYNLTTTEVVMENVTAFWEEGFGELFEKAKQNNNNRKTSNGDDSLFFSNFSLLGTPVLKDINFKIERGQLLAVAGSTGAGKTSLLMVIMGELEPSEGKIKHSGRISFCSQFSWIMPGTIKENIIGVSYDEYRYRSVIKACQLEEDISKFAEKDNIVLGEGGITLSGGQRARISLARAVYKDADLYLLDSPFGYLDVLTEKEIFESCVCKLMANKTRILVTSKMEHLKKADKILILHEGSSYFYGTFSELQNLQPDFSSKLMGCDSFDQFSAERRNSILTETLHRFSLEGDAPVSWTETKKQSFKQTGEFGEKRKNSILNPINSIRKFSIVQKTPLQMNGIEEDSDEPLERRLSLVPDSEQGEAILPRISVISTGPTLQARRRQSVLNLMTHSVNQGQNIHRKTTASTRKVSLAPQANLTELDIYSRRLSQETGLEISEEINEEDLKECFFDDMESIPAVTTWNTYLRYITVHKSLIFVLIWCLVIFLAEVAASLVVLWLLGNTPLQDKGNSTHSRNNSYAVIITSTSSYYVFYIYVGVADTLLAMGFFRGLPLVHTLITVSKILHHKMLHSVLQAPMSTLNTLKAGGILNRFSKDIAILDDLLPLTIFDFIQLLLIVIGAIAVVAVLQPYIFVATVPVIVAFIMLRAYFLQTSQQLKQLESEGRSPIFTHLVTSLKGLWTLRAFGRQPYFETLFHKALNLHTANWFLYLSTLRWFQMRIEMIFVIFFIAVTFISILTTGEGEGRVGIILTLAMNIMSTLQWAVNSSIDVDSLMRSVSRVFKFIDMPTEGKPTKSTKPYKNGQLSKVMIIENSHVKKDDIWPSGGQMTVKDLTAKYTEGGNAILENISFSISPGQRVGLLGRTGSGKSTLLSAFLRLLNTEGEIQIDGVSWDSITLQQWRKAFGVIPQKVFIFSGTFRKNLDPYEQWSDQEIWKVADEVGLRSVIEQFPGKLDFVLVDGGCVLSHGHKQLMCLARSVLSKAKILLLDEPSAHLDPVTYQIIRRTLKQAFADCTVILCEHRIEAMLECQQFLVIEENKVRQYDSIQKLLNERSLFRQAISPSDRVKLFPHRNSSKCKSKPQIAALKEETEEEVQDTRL

SMILES | Emax [%] | EC50 [µM]
Cc1cc2[nH]cc(C(=O)Nc3cc(O)c(C(C)(C)C)cc3C(C)(C)C)c(=O)n2n1 [Compound 1] | 25 to 100 | < 5
CC(C)(C)c1c[nH]c2cc(NC(=O)c3c[nH]c4ccnn4c3=O)ccc12 [Compound 2] | > 100 | < 5
Cc1cc2[nH]cc(C(=O)Nc3ccc(N4CCC(C)(C)C4)cc3C(F)(F)F)c(=O)n2c1 [Compound 3] | 25 to 100 | < 5
Cc1cc2[nH]cc(C(=O)Nc3cc4[nH]ccc4cc3C(C)(C)C)c(=O)n2n1 [Compound 4] | 25 to 100 | < 5
CC(C)(C)c1cc(C(C)(C)C)c(NC(=O)c2c[nH]c3ccnn3c2=O)cc1O [Compound 5, N-(2,4-di-tert-butyl-5-hydroxyphenyl)-7-oxo-4,7-dihydropyrazolo[1,5-a]pyrimidine-6-carboxamide] | 25 to 100 | < 5
CC(C)(C)c1cc2cc[nH]c2cc1NC(=O)c1c[nH]c2ccnn2c1=O [Compound 6] | 25 to 100 | < 5
CCc1cc2[nH]cc(C(=O)Nc3ccc4c(C(F)(F)F)c[nH]c4c3)c(=O)n2c1 [Compound 7] | 25 to 100 | < 5
O=C(Nc1cc2[nH]ccc2cc1C(F)(F)F)c1c[nH]c2ccnn2c1=O [Compound 8] | 25 to 100 | 5 to 20
CCc1cc2[nH]cc(C(=O)Nc3ccc4c(C(C)(C)C)c[nH]c4c3)c(=O)n2c1 [Compound 9] | 25 to 100 | < 5
Cc1cc2[nH]cc(C(=O)Nc3ccc4cc[nH]c4c3)c(=O)n2n1 [Compound 10] | 25 to 100 | > 20
CCc1cc2[nH]cc(C(=O)Nc3cc4[nH]ccc4cc3C(F)(F)F)c(=O)n2c1 [Compound 11] | 25 to 100 | < 5
CCc1cc2[nH]cc(C(=O)Nc3cc(O)c(C4(C)CCCCC4)cc3F)c(=O)n2c1 [Compound 12] | 25 to 100 | 5 to 20
O=C(Nc1ccc(N2CCCC2)cc1C(F)(F)F)c1c[nH]c2ccnn2c1=O [Compound 13] | 25 to 100 | 5 to 20
CCc1cc2[nH]cc(C(=O)Nc3cc(O)c(C(C)(C)C)cc3C(C)(C)C)c(=O)n2c1 [Compound 14, N-(2,4-di-tert-butyl-5-hydroxyphenyl)-7-ethyl-4-oxo-1,4-dihydropyrrolo[1,2-a]pyrimidine-3-carboxamide] | 25 to 100 | < 5
Cc1cc2[nH]cc(C(=O)Nc3cc(O)c(C4(C)CCCCC4)cc3F)c(=O)n2c1 [Compound 15] | 25 to 100 | < 5
Cc1cc2[nH]cc(C(=O)Nc3cc(O)c(C4CCCC4)cc3C(F)(F)F)c(=O)n2c1 [Compound 16] | 25 to 100 | < 5
Cc1cc2[nH]cc(C(=O)Nc3ccc4c(C(F)(F)F)c[nH]c4c3)c(=O)n2c1 [Compound 17] | 25 to 100 | < 5
Cc1cc2[nH]cc(C(=O)Nc3cc(O)c(C4CCCC4)cc3C)c(=O)n2c1 [Compound 18] | 25 to 100 | < 5
Cc1cc2[nH]cc(C(=O)Nc3cc(O)c(C4CCCC4)cc3C#N)c(=O)n2c1 [Compound 19] | 25 to 100 | < 5
